How the values were obtained:
Format in all cases: biochemical
[1] = biological target: T1, UGT 2B4 (Homo sapiens, UniProt P06133); assay: UGT activity: utilization of substrate by recombinant UGT 2B4 Supersomes; settings: 2 hour incubation at 37° C., plus vs minus UDPGA
T1 construct: purchased BD Gentest; host or cells: insect cells (microsomes)
T1 sequence (P06133 24-528): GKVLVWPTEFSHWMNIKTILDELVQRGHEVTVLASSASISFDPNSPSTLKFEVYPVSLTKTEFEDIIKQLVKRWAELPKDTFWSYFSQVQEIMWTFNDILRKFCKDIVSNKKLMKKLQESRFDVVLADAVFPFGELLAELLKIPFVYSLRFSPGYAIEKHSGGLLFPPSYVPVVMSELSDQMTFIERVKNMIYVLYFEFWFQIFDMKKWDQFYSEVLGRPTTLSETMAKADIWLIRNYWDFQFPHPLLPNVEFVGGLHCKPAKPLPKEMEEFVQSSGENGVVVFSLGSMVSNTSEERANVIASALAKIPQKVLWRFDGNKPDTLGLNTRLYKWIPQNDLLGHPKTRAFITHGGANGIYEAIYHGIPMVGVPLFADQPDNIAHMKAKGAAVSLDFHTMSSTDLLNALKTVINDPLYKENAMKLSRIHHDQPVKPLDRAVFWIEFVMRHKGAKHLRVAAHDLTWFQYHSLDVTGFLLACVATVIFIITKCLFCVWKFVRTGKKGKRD
Protocol: (§1) The invention includes a method of determining activity of the uridine 5′-diphospho-glucuronosyltransferase (UDP-glucuronosyltransferase, or UGT) family enzymes in vitro. Briefly, UGT enzymes from overexpressed insect microsomes (Supersomes™, BD Gentest™) or animal tissue microsomes (Xenotech, BD Gentest™) were incubated with a cyanobenzothiazole substrate of the invention and the cofactor UDP-glucuronic acid (UDPGA) at 37° C. in buffer at physiological pH containing MgCl2 and alamethicin (typically, 50 mM TES, pH 7.5, 8 mM MgCl2, 4 mM UDPGA (Sigma) and 25 μg/mL alamethicin (Sigma)). Following the UGT enzyme reaction, an equal volume of P450-Glo Luciferin Detection Reagent (Promega) containing 15-30 mM D-cysteine-HCl.H2O (Sigma) was added and the plate was mixed and incubated at room temperature, typically for 20-30 minutes. […]
(§2) During this incubation, the cysteine reacts with the cyanobenzathiozole substrate to yield a D-luciferin derivative. […] Therefore, activity of the UGT enzyme can be measured by analyzing the difference (lower or no output) in relative light units (RLU) of a sample in which glucuronidation occurs compared to a sample that was run under the same conditions with no added UDPGA cofactor. […]
(§3) Reactions were assembled in a white 96-well plate. […] After the incubation was completed, the plate was read on a Veritas™ luminometer (Turner BioSystems, Inc.; Sunnyvale, Calif.). […]

[2] = biological target: T2, UGT 1A1 (Homo sapiens, UniProt P22309); assay: UGT activity: utilization of substrate by recombinant UGT 1A1 Supersomes; settings: 2 hour incubation at 37° C., plus vs minus UDPGA, background corrected
T2 construct: purchased BD Gentest; host or cells: insect cells (microsomes)
T2 sequence (P22309 26-533): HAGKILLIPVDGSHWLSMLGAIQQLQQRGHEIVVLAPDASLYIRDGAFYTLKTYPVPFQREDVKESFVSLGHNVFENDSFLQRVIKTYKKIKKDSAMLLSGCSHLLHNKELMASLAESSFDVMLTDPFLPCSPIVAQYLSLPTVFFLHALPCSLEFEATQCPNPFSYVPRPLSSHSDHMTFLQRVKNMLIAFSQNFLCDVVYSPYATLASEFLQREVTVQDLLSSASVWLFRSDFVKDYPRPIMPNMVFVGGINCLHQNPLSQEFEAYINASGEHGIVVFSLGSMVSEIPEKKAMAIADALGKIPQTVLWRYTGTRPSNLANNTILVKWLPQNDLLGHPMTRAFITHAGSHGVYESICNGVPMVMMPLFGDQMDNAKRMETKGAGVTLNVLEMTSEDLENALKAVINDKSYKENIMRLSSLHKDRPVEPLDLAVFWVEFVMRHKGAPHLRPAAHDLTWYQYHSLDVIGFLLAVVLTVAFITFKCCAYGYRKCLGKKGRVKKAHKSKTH
Protocol: as §1, §2, §3

[3] = biological target: T3, UGT 1A3 (Homo sapiens, UniProt P35503); assay: UGT activity: utilization of substrate by recombinant UGT 1A3 Supersomes; settings: 2 hour incubation at 37° C., plus vs minus UDPGA
T3 construct: purchased BD Gentest; host or cells: insect cells (microsomes)
T3 sequence (P35503 29-534): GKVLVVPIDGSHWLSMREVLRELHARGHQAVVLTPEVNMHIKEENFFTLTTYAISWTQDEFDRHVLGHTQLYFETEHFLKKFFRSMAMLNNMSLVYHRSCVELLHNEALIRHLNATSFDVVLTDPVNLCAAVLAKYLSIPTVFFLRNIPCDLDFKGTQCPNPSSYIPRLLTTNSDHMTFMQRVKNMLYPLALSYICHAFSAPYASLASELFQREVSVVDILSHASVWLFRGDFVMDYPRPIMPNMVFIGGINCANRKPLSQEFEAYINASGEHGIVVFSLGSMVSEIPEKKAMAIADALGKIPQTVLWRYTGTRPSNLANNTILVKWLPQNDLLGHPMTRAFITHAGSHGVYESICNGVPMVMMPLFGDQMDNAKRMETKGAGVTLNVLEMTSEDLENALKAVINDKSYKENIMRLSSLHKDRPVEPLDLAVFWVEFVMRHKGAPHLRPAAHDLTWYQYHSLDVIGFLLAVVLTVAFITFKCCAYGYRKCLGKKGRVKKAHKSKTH
Protocol: as §1, §2, §3

Row | SMILES | utilization by UGT 2B4 (in words) [1] | % utilization by UGT 1A1 [2] | utilization by UGT 1A3 (in words) [3]
1 | Cc1cc(O)cc2sc(C#N)nc12 [compound 3138] | did not utilize either compound 3138 or 3478 to an appreciable extent | over 50% | detectable levels of utilization above background
2 | Cc1cc(O)cc2sc(C3=NC(C(=O)O)CS3)nc12 (stereo not drawn) [compound 3478] | did not utilize either compound 3138 or 3478 to an appreciable extent | ≤ 15% | only UGT 1A6 was able to utilize compound 3478 to any appreciable extent

Reference: patent publication US8551721B2, “Bioluminescent detection of cyanohydroxy benzothiazole compounds” (Promega Corporation, priority 2008, dated 2013)
